{"source": "patent US20250243192A1", "about": "“CRYSTALLINE FORM OF LANIFIBRANOR” (INVENTIVA, priority 2022, published 2025)", "type_in_all_cases": "physicochemical", "key": {"[1]": {"experiment": "Competitive slurry tests (stability tests) in various solvents, solid analysed by PXRD", "details": "room temperature; for Form(s) present T0: immediately after stirring was initiated", "procedure": "Competitive slurry tests were performed in various solvents such as acetone, ethanol, ethyl acetate, acetic acid, methyl ethyl ketone and methyl isobutyl ketone.\nA saturated solution of lanifibranor form beta (as obtained in example 2) was prepared for each solvent. An equal amount of lanifibranor form alpha and lanifibranor form beta was introduced into a vial (50 mg+50 mg), and 250 μL of the saturated solution prepared beforehand (recovered by filtration through a 0.2 μm H-PTFE filter) were then added. The mixture was stirred at room temperature, samples of the solid were taken immediately after stirring was initiated and 24 hours after, and analyzed by PXRD to identify the solid form(s) present."}, "[2]": {"experiment": "Compression tests, pellet analysed by PXRD", "details": "100 mg, 13 mm die, 10-Ton pressure for 15 minutes", "procedure": "Compression tests were performed on the crystalline forms (alpha, beta) and on the amorphous form of lanifibranor. 100 mg of each sample were introduced between […] into a 13 mm die and subjected to a 10-Ton pressure for 15 minutes. The pellet obtained was then de-compacted and analysed by PXRD in order to monitor changes in the crystal structure of the sample."}, "[3]": {"experiment": "Screening for solid forms of lanifibranor", "source_text": "An amorphous form was further obtained."}, "[4]": {"experiment": "Stability testing in accordance with EMA guidance (CPMP/ICH/2736/99), PXRD and DSC after storage", "procedure": "Lanifibranor form beta, as obtained in example 2, was submitted to stability testing in accordance with EMA guidance (CPMP/ICH/2736/99, last revised in August 2003); the drug substance was thus stored under the following conditions: • 6 months at 30° C./65° RH, • 6 months at 40° C./75% RH, and • 12 months at 25° C./60% RH.\nAt the end of each storage period, the drug substance was characterized by PXRD and by DSC."}, "[5]": {"experiment": "Dynamic vapor sorption (DVS) analysis", "details": "range 0% RH-95% RH, 25° C.", "procedure": "DVS analysis was conducted on a SMS DVS Intrinsic system. Analyses were performed on a few milligrams of sample, in open aluminum pans at 25° C. The stability criterion for each step was a weight change lower than 0.002% on a 5 min time frame. The time criterion for each step was 100 min (minimum duration by step: 10 min). Relative humidity was scanned between 0% RH and 95% RH with 10% RH steps (40-0-95-0-95)."}, "[6]": {"experiment": "Thermogravimetry (TGA) analysis", "details": "temperature range 25-200° C.", "procedure": "TGA analysis was conducted on a Mettler Toledo TGA/DSC3+ thermogravimetric analyzer. Analyses were performed on a few milligrams of sample, in 100 µL sealed aluminum pans, punctured before analysis, under nitrogen flush at 50 mL/min. A temperature range between 25° C. and 300° C. was scanned at a 10° C./min rate."}}}
{"smiles": "O=C(O)CCCc1cc2cc(Cl)ccc2n1S(=O)(=O)c1ccc2ncsc2c1", "note": "[1-(6-benzothiazolylsulfonyl)-5-chloro-1H-indole-2-butanoic acid]", "values": [{"measurement": "Form(s) present T0 + 24 h", "setting": "[1]; acetic acid", "value": "form beta"}, {"measurement": "Form(s) present T0", "setting": "[1]; acetic acid", "value": "form alpha + form beta"}, {"measurement": "Form(s) present T0 + 24 h", "setting": "[1]; acetone", "value": "form beta"}, {"measurement": "Form(s) present T0", "setting": "[1]; acetone", "value": "form alpha + form beta"}, {"measurement": "Form(s) present T0 + 24 h", "setting": "[1]; ethanol", "value": "form beta"}, {"measurement": "Form(s) present T0", "setting": "[1]; ethanol", "value": "form alpha + form beta"}, {"measurement": "Form(s) present T0 + 24 h", "setting": "[1]; ethyl acetate", "value": "form beta"}, {"measurement": "Form(s) present T0", "setting": "[1]; ethyl acetate", "value": "form alpha + form beta"}, {"measurement": "Form(s) present T0 + 24 h", "setting": "[1]; methyl ethyl ketone", "value": "form beta"}, {"measurement": "Form(s) present T0", "setting": "[1]; methyl ethyl ketone", "value": "form alpha + form beta"}, {"measurement": "Form(s) present T0 + 24 h", "setting": "[1]; methyl isobutyl ketone", "value": "form beta"}, {"measurement": "Form(s) present T0", "setting": "[1]; methyl isobutyl ketone", "value": "form alpha + form beta"}]}
{"smiles": "O=C(O)CCCc1cc2cc(Cl)ccc2n1S(=O)(=O)c1ccc2ncsc2c1", "note": "[amorphous form, 1-(6-benzothiazolylsulfonyl)-5-chloro-1H-indole-2-butanoic acid]", "values": [{"measurement": "change in the solid form after compression (PXRD)", "setting": "[2]", "value": "weak diffraction signals corresponding to form beta were detected after compression"}, {"measurement": "stability of the solid form upon handling/processing", "setting": "[3]", "value": "crystallize into form alpha or form beta even at low temperatures"}]}
{"smiles": "O=C(O)CCCc1cc2cc(Cl)ccc2n1S(=O)(=O)c1ccc2ncsc2c1", "note": "[lanifibranor form alpha, 1-(6-benzothiazolylsulfonyl)-5-chloro-1H-indole-2-butanoic acid]", "values": [{"measurement": "change in the solid form after compression (PXRD)", "setting": "[2]", "value": "additional signals that could correspond to peak shifts caused by a transformation to form beta"}, {"measurement": "stability of the solid form upon handling/processing", "setting": "[3]", "value": "did readily convert to the other form upon handling/processing"}]}
{"smiles": "O=C(O)CCCc1cc2cc(Cl)ccc2n1S(=O)(=O)c1ccc2ncsc2c1", "note": "[lanifibranor form beta, 1-(6-benzothiazolylsulfonyl)-5-chloro-1H-indole-2-butanoic acid]", "values": [{"measurement": "relative stability of the solid forms", "setting": "[1]; conclusion from the competitive slurries in all solvents", "value": "most stable form at room temperature"}, {"measurement": "solid form stability on storage (PXRD and DSC)", "setting": "[4]; 6 months at 30° C./65° RH", "value": "stable over long-term storage"}, {"measurement": "solid form stability on storage (PXRD and DSC)", "setting": "[4]; 6 months at 40° C./75% RH", "value": "stable over long-term storage"}, {"measurement": "solid form stability on storage (PXRD and DSC)", "setting": "[4]; 12 months at 25° C./60% RH", "value": "stable over long-term storage"}, {"measurement": "maximum uptake (weight variation) in DVS", "setting": "[5]", "value": "+0.1%"}, {"measurement": "weight loss in TGA curve", "setting": "[6]", "value": "does not highlight any significant weight loss"}, {"measurement": "change in the solid form after compression (PXRD)", "setting": "[2]", "value": "no significant change in the solid form"}, {"measurement": "stability of the solid form upon handling/processing", "setting": "[3]", "value": "more stable form"}]}
